Starred links: 1 amine or outer side, 2 acyl side, 3 side chain; linkers in the order of their positions; H or OH if unused. Positions of bridges follow the written chain, without caps; N, C: chain ends. Non-standard residues stand in square brackets, D forms with d. Residues, ends and D or L forms follow the SMILES beside them. Groups on a side chain read outwards from the residue. *: point of attachment. X3 = O=C(O)CCCCCCCCCCCCCCCCCCC(=O)N[C@@H](CCC(=O)NCOCCOCC(=O)NCOCCOCC(=O)*)C(=O)O; X2 = O=C(O)CCCCCCCCCCCCCCCCC(=O)N[C@@H](CCC(=O)NCOCCOCC(=O)NCOCCOCC(=O)*)C(=O)O; X1 = O=C(O)CCCCCCCCCCCCCCCCCCC(=O)NCOCCOCC(=O)*; C20 diacid = O=C(O)CCCCCCCCCCCCCCCCCCC(=O)*; C18 diacid = O=C(O)CCCCCCCCCCCCCCCCC(=O)*; γGlu = O=C(O)[C@H](CCC(=O)[*:2])N[*:1]; Palmitoyl = CCCCCCCCCCCCCCCC(=O)*; AEEA = NCCOCCOCC(=O)O
Test: in vivo
Parameters: species or system Sprague-Dawley rats
Settings: rat, iv, 0.033 mg/kg
In short: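 Male Sprague-Dawley rats, non-fasted (n=3), given peptide in saline as 1-h IV or SC infusion at 0.033 mg/kg, or SC bolus at 0.3 mg/kg; jugular blood to 48 h into K2EDTA plus protease inhibitors. Plasma extracted by precipitation or WCX solid-phase extraction, quantified by UPLC-MS/MS against standards in matching rat plasma.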

Q: With `CCCCCCCCCCCCCCCC(=O)N[C@@H](CCC(=O)N[C@@H](CCC(=O)N[C@@H](CCC(=O)N[C@@H](CCC(=O)N[C@@H](CCC(=O)NCCCC[C@@H](NC(=O)[C@H](CCC(=O)O)NC(=O)[C@H](CC(N)=O)NC(=O)[C@H](C)NC(=O)[C@H](CC(C)C)NC(=O)[C@H](CCCNC(=N)N)NC(=O)[C@H](CCC(N)=O)NC(=O)[C@@H](NC(=O)[C@H](C)NC(=O)[C@@H]1CSSC[C@H](NC(=O)[C@@H](N)CO)C(=O)N[C@@H](CC(N)=O)C(=O)N[C@@H]([C@@H](C)O)C(=O)N[C@@H](CO)C(=O)N[C@@H]([C@@H](C)O)C(=O)N1)[C@@H](C)O)C(=O)N[C@@H](Cc1c[nH]cn1)C(=O)N[C@@H](CCCCN)C(=O)N[C@@H](CO)C(=O)N[C@@H](CO)C(=O)N[C@@H](CC(N)=O)C(=O)N[C@@H](CC(N)=O)C(=O)N[C@@H](Cc1ccccc1)C(=O)NCC(=O)N1CCC[C@H]1C(=O)N[C@H](C(=O)N[C@@H](CC(C)C)C(=O)N1CCC[C@H]1C(=O)N1CCC[C@H]1C(=O)N[C@H](C(=O)N[C@@H](CCCCN)C(=O)N[C@H](C(=O)NCC(=O)N[C@@H](CO)C(=O)N[C@@H](CCC(=O)O)C(=O)N[C@H](C(=O)N[C@@H](Cc1ccc(O)cc1)C(N)=O)[C@@H](C)O)C(C)C)[C@@H](C)O)[C@@H](C)CC)C(=O)O)C(=O)O)C(=O)O)C(=O)O)C(=O)O` [Compound A91] (H-SCNTSTCATQRLANE[dK]([γGlu-γGlu-γGlu-γGlu-γGlu-Palmitoyl])HKSSNNFGPILPPTKVGSETY-NH2; disulfide 2-7) as the compound, how does the Vd read?
A: 0.194 L/kg

Q: What about the clearance of the same compound?
A: 11.6 mL/h/kg

Q: What about the half-life of the same compound?
A: 13.2 h

Q: With `CC[C@H](C)[C@H](NC(=O)[C@@H]1CCCN1C(=O)CNC(=O)[C@H](Cc1ccccc1)NC(=O)[C@H](CC(N)=O)NC(=O)[C@H](CC(N)=O)NC(=O)[C@H](CO)NC(=O)[C@H](CO)NC(=O)[C@H](CCCCN)NC(=O)[C@H](Cc1c[nH]cn1)NC(=O)[C@H](CCCCNC(=O)CCCCCCCCCCCCCCCCC(=O)O)NC(=O)[C@H](CCC(=O)O)NC(=O)[C@H](CC(N)=O)NC(=O)[C@H](C)NC(=O)[C@H](CC(C)C)NC(=O)[C@H](CCCNC(=N)N)NC(=O)[C@H](CCC(N)=O)NC(=O)[C@@H](NC(=O)[C@H](C)NC(=O)[C@@H]1CSSC[C@H](NC(=O)[C@@H](N)CO)C(=O)N[C@@H](CC(N)=O)C(=O)N[C@@H]([C@@H](C)O)C(=O)N[C@@H](CO)C(=O)N[C@@H]([C@@H](C)O)C(=O)N1)[C@@H](C)O)C(=O)N[C@@H](CC(C)C)C(=O)N1CCC[C@H]1C(=O)N1CCC[C@H]1C(=O)N[C@H](C(=O)N[C@@H](CCCCN)C(=O)N[C@H](C(=O)NCC(=O)N[C@@H](CO)C(=O)N[C@@H](CCC(=O)O)C(=O)N[C@H](C(=O)N[C@@H](Cc1ccc(O)cc1)C(N)=O)[C@@H](C)O)C(C)C)[C@@H](C)O` [Compound A93] (H-SCNTSTCATQRLANEK(C18 diacid)HKSSNNFGPILPPTKVGSETY-NH2; disulfide 2-7) as the compound, how does the Vd read?
A: 0.129 L/kg

Q: What about the clearance of the same compound?
A: 6.54 mL/h/kg

Q: And the half-life?
A: 16.7 h

Q: For `CC[C@H](C)[C@H](NC(=O)[C@@H]1CCCN1C(=O)CNC(=O)[C@H](Cc1ccccc1)NC(=O)[C@H](CC(N)=O)NC(=O)[C@H](CC(N)=O)NC(=O)[C@H](CO)NC(=O)[C@H](CO)NC(=O)[C@H](CCCCN)NC(=O)[C@H](Cc1c[nH]cn1)NC(=O)[C@H](CC(C)C)NC(=O)[C@H](CCCCNC(=O)CC[C@H](NC(=O)CC[C@H](NC(=O)COCCOCNC(=O)COCCOCNC(=O)CC[C@H](NC(=O)CCCCCCCCCCCCCCCCCCC(=O)O)C(=O)O)C(=O)O)C(=O)O)NC(=O)[C@H](CC(N)=O)NC(=O)[C@H](C)NC(=O)[C@H](CC(C)C)NC(=O)[C@H](CCCNC(=N)N)NC(=O)[C@H](CCC(N)=O)NC(=O)[C@@H](NC(=O)[C@H](C)NC(=O)[C@@H]1CSSC[C@H](NC(=O)[C@@H](N)CO)C(=O)N[C@@H](CC(N)=O)C(=O)N[C@@H]([C@@H](C)O)C(=O)N[C@@H](CO)C(=O)N[C@@H]([C@@H](C)O)C(=O)N1)[C@@H](C)O)C(=O)N[C@@H](CC(C)C)C(=O)N1CCC[C@H]1C(=O)N1CCC[C@H]1C(=O)N[C@H](C(=O)N[C@@H](CCCCN)C(=O)N[C@H](C(=O)NCC(=O)N[C@@H](CO)C(=O)N[C@@H](CCC(=O)O)C(=O)N[C@H](C(=O)N[C@@H](Cc1ccc(O)cc1)C(N)=O)[C@@H](C)O)C(C)C)[C@@H](C)O` [Compound A94] (H-SCNTSTCATQRLANK([γGlu-γGlu-X3])LHKSSNNFGPILPPTKVGSETY-NH2; disulfide 2-7; N-terminus assumed), which Vd is on record?
A: 0.084 L/kg

Q: What about the clearance of the same compound?
A: 2.19 mL/h/kg

Q: What about the half-life of the same compound?
A: 29.3 h

Q: Which Vd does the source give for `CC[C@H](C)[C@H](NC(=O)[C@@H]1CCCN1C(=O)CNC(=O)[C@H](Cc1ccccc1)NC(=O)[C@H](CC(N)=O)NC(=O)[C@H](CC(N)=O)NC(=O)[C@H](CO)NC(=O)[C@H](CO)NC(=O)[C@H](CCCCN)NC(=O)[C@H](Cc1c[nH]cn1)NC(=O)[C@H](CC(C)C)NC(=O)[C@@H](CCCCNC(=O)CC[C@H](NC(=O)CC[C@H](NC(=O)COCCOCNC(=O)CCCCCCCCCCCCCCCCCCC(=O)O)C(=O)O)C(=O)O)NC(=O)[C@H](CC(N)=O)NC(=O)[C@H](C)NC(=O)[C@H](CC(C)C)NC(=O)[C@H](CCCNC(=N)N)NC(=O)[C@H](CCC(N)=O)NC(=O)[C@@H](NC(=O)[C@H](C)NC(=O)[C@@H]1CSSC[C@H](NC(=O)[C@@H](N)CO)C(=O)N[C@@H](CC(N)=O)C(=O)N[C@@H]([C@@H](C)O)C(=O)N[C@@H](CO)C(=O)N[C@@H]([C@@H](C)O)C(=O)N1)[C@@H](C)O)C(=O)N[C@@H](CC(C)C)C(=O)N1CCC[C@H]1C(=O)N1CCC[C@H]1C(=O)N[C@H](C(=O)N[C@@H](CCCCN)C(=O)N[C@H](C(=O)NCC(=O)N[C@@H](CO)C(=O)N[C@@H](CCC(=O)O)C(=O)N[C@H](C(=O)N[C@@H](Cc1ccc(O)cc1)C(N)=O)[C@@H](C)O)C(C)C)[C@@H](C)O` [Compound A96] (H-SCNTSTCATQRLAN[dK]([γGlu-γGlu-X1])LHKSSNNFGPILPPTKVGSETY-NH2; disulfide 2-7; N-terminus assumed) here?
A: 0.153 L/kg

Q: What about the clearance of the same compound?
A: 5.98 mL/h/kg

Q: What about the half-life of the same compound?
A: 20.1 h

Q: Which Vd does the source give for `CC[C@H](C)[C@H](NC(=O)[C@@H]1CCCN1C(=O)CNC(=O)[C@H](Cc1ccccc1)NC(=O)[C@H](CC(N)=O)NC(=O)[C@H](CC(N)=O)NC(=O)[C@H](CO)NC(=O)[C@H](CO)NC(=O)[C@H](CCCCN)NC(=O)[C@H](Cc1c[nH]cn1)NC(=O)[C@H](CC(C)C)NC(=O)[C@@H](CCCCNC(=O)CC[C@H](NC(=O)CC[C@H](NC(=O)CCCCCCCCCCCCCCCCCCC(=O)O)C(=O)O)C(=O)O)NC(=O)[C@H](CC(N)=O)NC(=O)[C@H](C)NC(=O)[C@H](CC(C)C)NC(=O)[C@H](CCCNC(=N)N)NC(=O)[C@H](CCC(N)=O)NC(=O)[C@@H](NC(=O)[C@H](C)NC(=O)[C@@H]1CSSC[C@H](NC(=O)[C@@H](N)CO)C(=O)N[C@@H](CC(N)=O)C(=O)N[C@@H]([C@@H](C)O)C(=O)N[C@@H](CO)C(=O)N[C@@H]([C@@H](C)O)C(=O)N1)[C@@H](C)O)C(=O)N[C@@H](CC(C)C)C(=O)N1CCC[C@H]1C(=O)N1CCC[C@H]1C(=O)N[C@H](C(=O)N[C@@H](CCCCN)C(=O)N[C@H](C(=O)NCC(=O)N[C@@H](CO)C(=O)N[C@@H](CCC(=O)O)C(=O)N[C@H](C(=O)N[C@@H](Cc1ccc(O)cc1)C(N)=O)[C@@H](C)O)C(C)C)[C@@H](C)O` [Compound A97] (H-SCNTSTCATQRLAN[dK]([γGlu-γGlu-C20 diacid])LHKSSNNFGPILPPTKVGSETY-NH2; disulfide 2-7) here?
A: 0.0995 L/kg

Q: And the clearance?
A: 3.62 mL/h/kg

Q: And the half-life?
A: 21 h

Q: With `CC[C@H](C)[C@H](NC(=O)[C@@H]1CCCN1C(=O)CNC(=O)[C@H](Cc1ccccc1)NC(=O)[C@H](CC(N)=O)NC(=O)[C@H](CC(N)=O)NC(=O)[C@H](CO)NC(=O)[C@H](CO)NC(=O)[C@H](CCCCN)NC(=O)[C@H](CCCCNC(=O)COCCOCNC(=O)COCCOCNC(=O)CC[C@H](NC(=O)CCCCCCCCCCCCCCCCC(=O)O)C(=O)O)NC(=O)[C@H](CC(C)C)NC(=O)[C@H](CCC(=O)O)NC(=O)[C@H](CC(N)=O)NC(=O)[C@H](C)NC(=O)[C@H](CC(C)C)NC(=O)[C@H](CCCNC(=N)N)NC(=O)[C@H](CCC(N)=O)NC(=O)[C@@H](NC(=O)[C@H](C)NC(=O)[C@@H]1CSSC[C@H](NC(=O)[C@@H](N)CO)C(=O)N[C@@H](CC(N)=O)C(=O)N[C@@H]([C@@H](C)O)C(=O)N[C@@H](CO)C(=O)N[C@@H]([C@@H](C)O)C(=O)N1)[C@@H](C)O)C(=O)N[C@@H](CC(C)C)C(=O)N1CCC[C@H]1C(=O)N1CCC[C@H]1C(=O)N[C@H](C(=O)N[C@@H](CCCCN)C(=O)N[C@H](C(=O)NCC(=O)N[C@@H](CO)C(=O)N[C@@H](CCC(=O)O)C(=O)N[C@H](C(=O)N[C@@H](Cc1ccc(O)cc1)C(N)=O)[C@@H](C)O)C(C)C)[C@@H](C)O` [Compound A99] (H-SCNTSTCATQRLANELK(X2)KSSNNFGPILPPTKVGSETY-NH2; disulfide 2-7; N-terminus assumed) as the compound, how does the Vd read?
A: 0.128 L/kg

Q: And the clearance?
A: 5.69 mL/h/kg

Q: What about the half-life of the same compound?
A: 19.5 h

Q: What does the source list for `CC[C@H](C)[C@H](NC(=O)[C@@H]1CCCN1C(=O)CNC(=O)[C@H](Cc1ccccc1)NC(=O)[C@H](CC(N)=O)NC(=O)[C@H](CC(N)=O)NC(=O)[C@H](CO)NC(=O)[C@H](CO)NC(=O)[C@H](CCCCN)NC(=O)[C@H](Cc1c[nH]cn1)NC(=O)[C@H](CC(C)C)NC(=O)[C@@H](CCCCNC(=O)CC[C@H](NC(=O)CC[C@H](NC(=O)COCCOCCNC(=O)COCCOCCNC(=O)CC[C@H](NC(=O)CCCCCCCCCCCCCCCCCCC(=O)O)C(=O)O)C(=O)O)C(=O)O)NC(=O)[C@H](CC(N)=O)NC(=O)[C@H](C)NC(=O)[C@H](CC(C)C)NC(=O)[C@H](CCCNC(=N)N)NC(=O)[C@H](CCC(N)=O)NC(=O)[C@@H](NC(=O)[C@H](C)NC(=O)[C@@H]1CSSC[C@H](NC(=O)[C@@H](N)CO)C(=O)N[C@@H](CC(N)=O)C(=O)N[C@@H]([C@@H](C)O)C(=O)N[C@@H](CO)C(=O)N[C@@H]([C@@H](C)O)C(=O)N1)[C@@H](C)O)C(=O)N[C@@H](CC(C)C)C(=O)N1CCC[C@H]1C(=O)N1CCC[C@H]1C(=O)N[C@H](C(=O)N[C@@H](CCCCN)C(=O)N[C@H](C(=O)NCC(=O)N[C@@H](CO)C(=O)N[C@@H](CCC(=O)O)C(=O)N[C@H](C(=O)N[C@@H](Cc1ccc(O)cc1)C(N)=O)[C@@H](C)O)C(C)C)[C@@H](C)O` [Compound A101] (H-SCNTSTCATQRLAN[dK]([γGlu-γGlu-AEEA-AEEA-γGlu-C20 diacid])LHKSSNNFGPILPPTKVGSETY-NH2; disulfide 2-7; N-terminus assumed)?
A: Vd: 0.149 L/kg; clearance: 4.05 mL/h/kg; half-life: 28.4 h
